Measured values: PubChem BioAssay (NCI)
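Grown in 96-well plates, cells were treated for 48 hours with each compound at five concentrations. Insufficient inhibition: endpoint recorded as highest concentration tested. The concentration for full growth arrest is given as TGI.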

Columns and labels:
Test in all cases: growth of human tumour cells (NCI), 48 h
[1] = test system: UO-31 renal
[2] = test system: HS 578T breast
[3] = test system: LOX IMVI melanoma
[4] = test system: CAKI-1 renal
[5] = test system: SK-OV-3 ovarian
[6] = test system: HCC-2998 colon
[7] = test system: HL-60(TB) leukemia
[8] = test system: IGROV1 ovarian
[9] = test system: SK-MEL-28 melanoma

O=C1CCCc2cc3c(cc21)CC1(C3)Cc2ccc3c(c2C1)C(=O)CCC3 (stereo not drawn)
TGI [1]: > 100 µM | TGI [2]: > 100 µM | TGI [3]: > 100 µM | TGI [4]: > 100 µM | TGI [5]: > 100 µM | TGI [6]: > 100 µM | TGI [7]: 27.7 µM | TGI [8]: > 100 µM | TGI [9]: 80.6 µM

COC(=O)c1cc2c(cc1CC(Cc1ccc3c(c1)CCC3)C(=O)OC)CCC2 (stereo not drawn)
TGI [1]: > 100 µM | TGI [2]: > 100 µM | TGI [3]: > 100 µM | TGI [4]: > 100 µM | TGI [5]: > 100 µM | TGI [6]: > 100 µM | TGI [7]: 31.1 µM | TGI [8]: > 100 µM | TGI [9]: > 100 µM

CCOC(=O)C1CN(C2CC2)CCC1=O (stereo not drawn)
TGI [1]: > 100 µM | TGI [2]: > 100 µM | TGI [3]: > 100 µM | TGI [4]: > 100 µM | TGI [5]: > 100 µM | TGI [6]: > 100 µM | TGI [7]: > 100 µM | TGI [8]: > 100 µM | TGI [9]: > 100 µM

CCc1nc2cc3cccnc3c(Cl)c2[nH]c1=O
TGI [1]: > 100 µM | TGI [2]: > 100 µM | TGI [3]: > 100 µM | TGI [4]: > 100 µM | TGI [5]: > 100 µM | TGI [6]: > 100 µM | TGI [7]: > 100 µM | TGI [8]: > 100 µM | TGI [9]: > 100 µM

Cc1ccc(S(=O)(=O)NC(=O)NNc2ccc(F)cc2)cc1
TGI [1]: > 31.6 µM | TGI [2]: > 100 µM | TGI [3]: > 100 µM | TGI [4]: > 100 µM | TGI [5]: > 100 µM | TGI [6]: > 100 µM | TGI [7]: > 100 µM | TGI [8]: > 100 µM | TGI [9]: > 100 µM

COc1ccc(N=Nc2c3c(c(O)c4ccccc24)CCC(C)(C)O3)cc1
TGI [1]: 35.2 µM | TGI [2]: 66.7 µM | TGI [3]: 29.9 µM | TGI [4]: 72.3 µM | TGI [5]: > 100 µM | TGI [6]: 24.5 µM | TGI [7]: 50.1 µM | TGI [8]: 35.5 µM | TGI [9]: 43.1 µM

COc1ccc(N=C2C(=S)N(c3ccc(OC)cc3)/C(=N/S(=O)(=O)c3ccccc3)N2c2ccccc2)cc1
TGI [1]: 13.4 µM | TGI [2]: > 66.1 µM | TGI [3]: 16.9 µM | TGI [4]: 28.2 µM | TGI [5]: > 55.4 µM | TGI [6]: > 57.9 µM | TGI [7]: > 100 µM | TGI [8]: 28.1 µM | TGI [9]: 29.7 µM

O=C(O)c1c2c(cc3c1CC1(Cc4ccccc4C1=O)C3)CCC2 (stereo not drawn)
TGI [1]: > 100 µM | TGI [2]: > 100 µM | TGI [3]: > 89.1 µM | TGI [4]: > 100 µM | TGI [5]: > 100 µM | TGI [6]: 13.4 µM | TGI [7]: 14.9 µM | TGI [8]: > 100 µM | TGI [9]: > 100 µM

COC(=O)c1cc(C)ccc1CC(Cc1ccc(C)cc1)C(=O)OC (stereo not drawn)
TGI [1]: > 100 µM | TGI [2]: > 100 µM | TGI [3]: > 100 µM | TGI [4]: > 100 µM | TGI [5]: 67.2 µM | TGI [6]: > 100 µM | TGI [7]: > 29.1 µM | TGI [8]: > 100 µM | TGI [9]: > 100 µM

O=C(CNCc1ccccc1)Oc1c(Cl)c(Cl)c(Cl)c(Cl)c1Cl
TGI [1]: 52.1 µM | TGI [2]: 50.6 µM | TGI [3]: 74.4 µM | TGI [4]: 56.1 µM | TGI [5]: > 100 µM | TGI [6]: 53.9 µM | TGI [7]: 52.4 µM | TGI [8]: > 100 µM | TGI [9]: > 100 µM

COc1cc(C=C2C(=O)NC(=S)NC2=O)cc(OC)c1OC
TGI [1]: > 100 µM | TGI [2]: > 100 µM | TGI [3]: > 100 µM | TGI [4]: > 100 µM | TGI [5]: > 100 µM | TGI [6]: > 100 µM | TGI [7]: > 100 µM | TGI [8]: > 100 µM | TGI [9]: > 100 µM

O=C1CCc2ccc3c(c21)CC1(Cc2ccccc2C1)C3
TGI [1]: 34 µM | TGI [2]: > 100 µM | TGI [3]: 20.1 µM | TGI [4]: > 100 µM | TGI [5]: > 100 µM | TGI [6]: 49.3 µM | TGI [7]: 7.03 µM | TGI [8]: > 100 µM | TGI [9]: 88.9 µM

Cc1cc(/N=C/c2ccc(C#N)cc2)n(-c2ccccc2)n1
TGI [1]: > 100 µM | TGI [2]: > 100 µM | TGI [3]: > 100 µM | TGI [4]: > 100 µM | TGI [5]: > 100 µM | TGI [6]: > 100 µM | TGI [7]: 76.6 µM | TGI [8]: > 100 µM | TGI [9]: > 100 µM

CC(C)(C)c1ccc(OCC(=O)O)c(Cl)c1
TGI [1]: > 100 µM | TGI [2]: > 100 µM | TGI [3]: > 100 µM | TGI [4]: > 100 µM | TGI [5]: > 100 µM | TGI [6]: > 100 µM | TGI [7]: > 100 µM | TGI [8]: > 100 µM | TGI [9]: > 100 µM

O/C(=C\c1nc2ccccc2nc1NC12CC3CC(CC(C3)C1)C2)c1ccc(Br)cc1
TGI [1]: > 10 µM | TGI [2]: > 10 µM | TGI [3]: > 10 µM | TGI [4]: > 10 µM | TGI [5]: > 10 µM | TGI [6]: > 10 µM | TGI [7]: > 10 µM | TGI [8]: > 10 µM | TGI [9]: > 10 µM

COc1cc(OCc2ccc3nc(OC)c(OC)nc3c2)cc(OC)c1OC
TGI [1]: > 10 µM | TGI [2]: > 10 µM | TGI [3]: > 10 µM | TGI [4]: > 10 µM | TGI [5]: > 10 µM | TGI [6]: > 10 µM | TGI [7]: > 10 µM | TGI [8]: > 10 µM | TGI [9]: > 10 µM

Cc1cc2nc(-c3cc(C(C)(C)C)c(O)c(C(C)(C)C)c3)[nH]c2cc1C
TGI [1]: > 27.4 µM | TGI [2]: > 100 µM | TGI [3]: 28.6 µM | TGI [4]: > 26.2 µM | TGI [5]: > 100 µM | TGI [6]: > 100 µM | TGI [7]: > 100 µM | TGI [8]: > 100 µM | TGI [9]: > 100 µM
